# Tests used:
# barnyardgrass [1] = test: Test C preemergence; format: in vivo, Echinochloa crusgalli
# Procedure, shortened: (§1)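 Greenhouse herbicide screen, 10-day duration. Test chemicals in solvent/surfactant blend were sprayed onto soil at sowing (pre) or onto 2–10 cm seedlings at one to two leaves (post); injury scored visually against controls, 0 no effect to 100 complete control.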
# blackgrass [2] = test: Test C preemergence; format: in vivo, Alopecurus myosuroides
# Procedure, shortened: as §1
# corn [3] = test: Test C preemergence; format: in vivo, Zea mays
# Procedure, shortened: as §1
# foxtail, giant [4] = test: Test C preemergence; format: in vivo, Setaria faberi
# Procedure, shortened: as §1
# kochia [5] = test: Test C preemergence; format: in vivo, Bassia scoparia
# Procedure, shortened: as §1
# oat, wild [6] = test: Test C preemergence; format: in vivo, Avena fatua
# Procedure, shortened: as §1
# pigweed, palmer [7] = test: Test C preemergence; format: in vivo, Amaranthus palmeri
# Procedure, shortened: as §1
# ragweed [8] = test: Test C preemergence; format: in vivo, Ambrosia artemisiifolia
# Procedure, shortened: as §1
# ryegrass, Italian [9] = test: Test C preemergence; format: in vivo, Lolium multiflorum
# Procedure, shortened: as §1
# soybean [10] = test: Test C preemergence; format: in vivo, Glycine max
# Procedure, shortened: as §1
# wheat [11] = test: Test C preemergence; format: in vivo, Triticum aestivum
# Procedure, shortened: as §1
# barnyardgrass [12] = test: Test C postemergence; format: in vivo, Echinochloa crusgalli; conditions: 10 days, 0 to 100 scale (0 no effect, 100 complete control)
# Procedure, shortened: as §1
# blackgrass [13] = test: Test C postemergence; format: in vivo, Alopecurus myosuroides; conditions: 10 days, 0 to 100 scale (0 no effect, 100 complete control)
# Procedure, shortened: as §1
# corn [14] = test: Test C postemergence; format: in vivo, Zea mays; conditions: 10 days, 0 to 100 scale (0 no effect, 100 complete control)
# Procedure, shortened: as §1
# foxtail, giant [15] = test: Test C postemergence; format: in vivo, Setaria faberi; conditions: 10 days, 0 to 100 scale (0 no effect, 100 complete control)
# Procedure, shortened: as §1
# kochia [16] = test: Test C postemergence; format: in vivo, Bassia scoparia; conditions: 10 days, 0 to 100 scale (0 no effect, 100 complete control)
# Procedure, shortened: as §1
# oat, wild [17] = test: Test C postemergence; format: in vivo, Avena fatua; conditions: 10 days, 0 to 100 scale (0 no effect, 100 complete control)
# Procedure, shortened: as §1
# pigweed, palmer [18] = test: Test C postemergence; format: in vivo, Amaranthus palmeri; conditions: 10 days, 0 to 100 scale (0 no effect, 100 complete control)
# Procedure, shortened: as §1
# ragweed [19] = test: Test C postemergence; format: in vivo, Ambrosia artemisiifolia; conditions: 10 days, 0 to 100 scale (0 no effect, 100 complete control)
# Procedure, shortened: as §1
# ryegrass, Italian [20] = test: Test C postemergence; format: in vivo, Lolium multiflorum; conditions: 10 days, 0 to 100 scale (0 no effect, 100 complete control)
# Procedure, shortened: as §1
# soybean [21] = test: Test C postemergence; format: in vivo, Glycine max; conditions: 10 days, 0 to 100 scale (0 no effect, 100 complete control)
# Procedure, shortened: as §1
# wheat [22] = test: Test C postemergence; format: in vivo, Triticum aestivum; conditions: 10 days, 0 to 100 scale (0 no effect, 100 complete control)
# Procedure, shortened: as §1
# galium = test: Test C postemergence; format: in vivo, Galium aparine; conditions: 10 days, 0 to 100 scale (0 no effect, 100 complete control)
# Procedure, shortened: as §1
# horseweed = test: Test C postemergence; format: in vivo, Erigeron canadensis; conditions: 10 days, 0 to 100 scale (0 no effect, 100 complete control)
# Procedure, shortened: as §1
# barnyardgrass [23] = test: Test D flooded paddy test; format: in vivo, Echinochloa crus-galli; conditions: 250 g ai/ha, applied to paddy water, visual rating after 13 to 14 days, scale 0 to 100 (0 no effect, 100 complete control)
# Procedure, shortened: (§2)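 Visual ratings from 0, meaning no effect, to 100, meaning complete control, were assigned against untreated controls 13 to 14 days after compounds were added to the floodwater of pots kept 3 cm deep, with plants at the 2-leaf stage.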
# ducksalad = test: Test D flooded paddy test; format: in vivo, Heteranthera limosa; conditions: 250 g ai/ha, applied to paddy water, visual rating after 13 to 14 days, scale 0 to 100 (0 no effect, 100 complete control)
# Procedure, shortened: as §2
# rice = test: Test D flooded paddy test; format: in vivo, Oryza sativa; conditions: 250 g ai/ha, applied to paddy water, visual rating after 13 to 14 days, scale 0 to 100 (0 no effect, 100 complete control)
# Procedure, shortened: as §2
# sedge, umbrella = test: Test D flooded paddy test; format: in vivo, Cyperus difformis; conditions: 250 g ai/ha, applied to paddy water, visual rating after 13 to 14 days, scale 0 to 100 (0 no effect, 100 complete control)
# Procedure, shortened: as §2
# [24] = 500 g ai/ha, preemergence, 0 to 100 scale (0 no effect, 100 complete control)
# [25] = Preemergence, 125 g ai/ha, 0 to 100 scale, 0 no effect, 100 complete control
compound,measurement,setting,value
CC(C)c1ncn(-c2cc(C(=O)N3CC(C(F)(F)F)Oc4c(Cl)cccc43)ccn2)n1 (racemic) [Compound 329],Barnyardgrass plant response rating,barnyardgrass [1]; [24],100
same,"Plant response rating, Barnyardgrass",barnyardgrass [1]; [25],70
same,Blackgrass plant response rating,blackgrass [2]; [24],80
same,"Plant response rating, Blackgrass",blackgrass [2]; [25],60
same,Corn plant response rating,corn [3]; [24],40
same,"Plant response rating, Corn",corn [3]; [25],20
same,"Foxtail, Giant plant response rating","foxtail, giant [4]; [24]",100
same,"Plant response rating, Foxtail, Giant","foxtail, giant [4]; [25]",100
same,Kochia plant response rating,kochia [5]; [24],100
same,"Plant response rating, Kochia",kochia [5]; [25],40
same,"Oat, Wild plant response rating","oat, wild [6]; [24]",80
same,"Plant response rating, Oat, Wild","oat, wild [6]; [25]",30
same,"Pigweed, Palmer plant response rating","pigweed, palmer [7]; [24]",100
same,"Plant response rating, Pigweed, Palmer","pigweed, palmer [7]; [25]",90
same,Ragweed plant response rating,ragweed [8]; [24],60
same,"Plant response rating, Ragweed",ragweed [8]; [25],0
same,"Ryegrass, Italian plant response rating","ryegrass, Italian [9]; [24]",100
same,"Plant response rating, Ryegrass, Italian","ryegrass, Italian [9]; [25]",70
same,Soybean plant response rating,soybean [10]; [24],80
same,"Plant response rating, Soybean",soybean [10]; [25],0
same,Wheat plant response rating,wheat [11]; [24],30
same,"Plant response rating, Wheat",wheat [11]; [25],10
same,"Plant response rating, Barnyardgrass","barnyardgrass [12]; 500 g ai/ha, postemergence",60
same,"Plant response rating, Barnyardgrass","barnyardgrass [12]; Postemergence, 125 g ai/ha",10
same,"Plant response rating, Blackgrass","blackgrass [13]; 500 g ai/ha, postemergence",90
same,"Plant response rating, Blackgrass","blackgrass [13]; Postemergence, 125 g ai/ha",50
same,"Plant response rating, Corn","corn [14]; 500 g ai/ha, postemergence",80
same,"Plant response rating, Corn","corn [14]; Postemergence, 125 g ai/ha",30
same,"Plant response rating, Foxtail, Giant","foxtail, giant [15]; 500 g ai/ha, postemergence",90
same,"Plant response rating, Foxtail, Giant","foxtail, giant [15]; Postemergence, 125 g ai/ha",50
same,"Plant response rating, Kochia","kochia [16]; 500 g ai/ha, postemergence",90
same,"Plant response rating, Kochia","kochia [16]; Postemergence, 125 g ai/ha",70
same,"Plant response rating, Oat, Wild","oat, wild [17]; 500 g ai/ha, postemergence",80
same,"Plant response rating, Oat, Wild","oat, wild [17]; Postemergence, 125 g ai/ha",30
same,"Plant response rating, Pigweed, Palmer","pigweed, palmer [18]; 500 g ai/ha, postemergence",80
same,"Plant response rating, Pigweed, Palmer","pigweed, palmer [18]; Postemergence, 125 g ai/ha",20
same,"Plant response rating, Ragweed","ragweed [19]; 500 g ai/ha, postemergence",40
same,"Plant response rating, Ragweed","ragweed [19]; Postemergence, 125 g ai/ha",40
same,"Plant response rating, Ryegrass, Italian","ryegrass, Italian [20]; 500 g ai/ha, postemergence",70
same,"Plant response rating, Ryegrass, Italian","ryegrass, Italian [20]; Postemergence, 125 g ai/ha",50
same,"Plant response rating, Soybean","soybean [21]; 500 g ai/ha, postemergence",100
same,"Plant response rating, Soybean","soybean [21]; Postemergence, 125 g ai/ha",100
same,"Plant response rating, Wheat","wheat [22]; 500 g ai/ha, postemergence",50
same,"Plant response rating, Wheat","wheat [22]; Postemergence, 125 g ai/ha",20
same,"Plant response rating, Galium","galium; 500 g ai/ha, postemergence",100
same,"Plant response rating, Galium","galium; Postemergence, 125 g ai/ha",60
same,"Plant response rating, Horseweed","horseweed; 500 g ai/ha, postemergence",0
same,"Plant response rating, Horseweed","horseweed; Postemergence, 125 g ai/ha",0
same,"Plant response rating, Barnyardgrass (Flood)",barnyardgrass [23],0
same,"Plant response rating, Ducksalad (Flood)",ducksalad,0
same,"Plant response rating, Rice (Flood)",rice,0
same,"Plant response rating, Sedge, Umbrella (Flood)","sedge, umbrella",0
